Source: patent US20220348590A1, “CYCLOOXYGENASE-2 INHIBITORS AND USES THEREOF” (The Board Institute, Inc., priority 2019, published 2022)

Biological target: T1, COX2 (Rattus norvegicus, UniProt P35355)
T1 construct: in-vitro autoradiography in rat brain slices; from tissue; host or cells: rat brain slices
T1 sequence (P35355 18-604): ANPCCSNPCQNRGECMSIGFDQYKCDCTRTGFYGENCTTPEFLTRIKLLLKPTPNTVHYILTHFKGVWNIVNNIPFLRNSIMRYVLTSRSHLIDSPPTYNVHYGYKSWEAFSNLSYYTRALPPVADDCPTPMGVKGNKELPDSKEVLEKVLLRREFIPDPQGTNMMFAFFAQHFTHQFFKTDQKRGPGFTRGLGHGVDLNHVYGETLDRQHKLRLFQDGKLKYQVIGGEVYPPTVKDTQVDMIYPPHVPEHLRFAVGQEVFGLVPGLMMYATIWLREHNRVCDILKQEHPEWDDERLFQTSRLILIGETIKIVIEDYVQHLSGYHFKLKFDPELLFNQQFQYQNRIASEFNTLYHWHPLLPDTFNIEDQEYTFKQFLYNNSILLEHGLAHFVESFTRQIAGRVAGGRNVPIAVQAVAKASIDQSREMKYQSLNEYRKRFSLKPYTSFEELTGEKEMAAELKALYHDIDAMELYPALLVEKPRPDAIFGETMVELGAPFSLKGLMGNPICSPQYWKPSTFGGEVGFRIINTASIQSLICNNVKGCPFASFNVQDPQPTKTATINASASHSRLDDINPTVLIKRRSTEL
Experiment: in-vitro autoradiography in rat brain slices (self-block)
Format: binding
Description: Three ligands have been evaluated with in-vitro autoradiography in rat brain slices. Radiolabeling was accomplished via methylation of either a sulfinate precursor ([^11C]Rofecoxib), hydroxyl precursor ([^11C]MC1) or thiol precursor ([^11C]98) using [^11C]-methyl iodide and offers chemical flexibility for radiolabeling of future candidates. […] This translated into a ˜2-fold increase in COX2 specific binding in a rat brain slice in-vitro autoradiography. […] These properties enable us to better understand the contribution of potency and free fraction to the ligand's specific binding.
Three newly synthesized COX2 ligands were successfully radiolabeled using this strategy and first evaluated by in-vitro autoradiography in rat brain slices using self-block experiments (FIG. 5). […] [^11C]36 was also evaluated for specific binding using self-block experiments in human post-mortem brain tissues (globus pallidus) from three Huntington's disease (HD) patients (FIG. 6). COX2 protein levels were quantified using immunostaining and defined as high, medium and low, respectively.

increase in COX2 specific binding (rat brain slice in-vitro autoradiography, compared to MC1): ~2 fold | specific binding (rat brain slices in vitro autoradiography, self-block, compared to earlier tracers): increase in specific binding
Compound: CS(=O)(=O)c1ccc(-c2cncc(NCc3cccs3)n2)cc1 [Compound 98]
